# Assay results as given in patent publication US20150105252A1, “SUBSTITUTED PYRAZOLES AS HERBICIDES” (E I DU PONT DE NEMOURS AND COMPANY, priority 2013, published 2015).
# How the values were obtained:
# [1] = test system: blackgrass; test: Test D preemergence; type: in vivo, Alopecurus myosuroides; conditions: Preemergence, scale 0 to 100
# Summary of the method: (§1)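 Visual 0-100 rating (100 = complete control) against untreated plants, made 14 to 21 days after treatment in a controlled environment. Compounds, formulated with surfactant in non-phytotoxic solvent, were applied either to seeds just sown in silt loam or to 1- to 4-leaf plants (2 to 18 cm) grown in peat-based medium.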
# [2] = test system: chickweed; test: Test D preemergence; type: in vivo, Stellaria media; conditions: Preemergence, scale 0 to 100
# Summary of the method: as §1
# [3] = test system: galium; test: Test D preemergence; type: in vivo, Galium aparine; conditions: Preemergence, scale 0 to 100
# Summary of the method: as §1
# [4] = test system: bromegrass, downy; test: Test D preemergence; type: in vivo, Bromus tectorum; conditions: Preemergence, scale 0 to 100
# Summary of the method: as §1
# [5] = test system: field poppy; test: Test D preemergence; type: in vivo, Papaver rhoeas; conditions: Preemergence, scale 0 to 100
# Summary of the method: as §1
# [6] = test system: kochia; test: Test D preemergence; type: in vivo, Kochia scoparia; conditions: Preemergence, scale 0 to 100
# Summary of the method: as §1
# [7] = test system: lambsquarters; test: Test D preemergence; type: in vivo, Chenopodium album; conditions: Preemergence, scale 0 to 100
# Summary of the method: as §1
# [8] = test system: oilseed rape; test: Test D preemergence; type: in vivo, Brassica napus; conditions: Preemergence, scale 0 to 100
# Summary of the method: as §1
# [9] = test system: wheat, spring; test: Test D preemergence; type: in vivo, Triticum aestivum; conditions: Preemergence, scale 0 to 100
# Summary of the method: as §1
# [10] = test system: wheat, winter; test: Test D preemergence; type: in vivo, Triticum aestivum; conditions: Preemergence, scale 0 to 100
# Summary of the method: as §1
# [11] = test system: radish, wild; test: Test D preemergence; type: in vivo, Raphanus raphanistrum; conditions: Preemergence, scale 0 to 100
# Summary of the method: as §1
# [12] = test system: windgrass; test: Test D preemergence; type: in vivo, Apera spica-venti; conditions: Preemergence, scale 0 to 100
# Summary of the method: as §1
# [13] = test system: canarygrass; test: Test D postemergence; type: in vivo, Phalaris minor; conditions: scale 0 to 100
# Summary of the method: as §1
# [14] = test system: chickweed; test: Test D postemergence; type: in vivo, Stellaria media; conditions: scale 0 to 100
# Summary of the method: as §1
# [15] = test system: field poppy; test: Test D postemergence; type: in vivo, Papaver rhoeas; conditions: scale 0 to 100
# Summary of the method: as §1
# [16] = test system: ryegrass, Italian; test: Test D postemergence; type: in vivo, Lolium multiflorum; conditions: scale 0 to 100
# Summary of the method: as §1
# [17] = test system: kochia; test: Test D postemergence; type: in vivo, Kochia scoparia; conditions: scale 0 to 100
# Summary of the method: as §1
# [18] = test system: oilseed rape; test: Test D postemergence; type: in vivo, Brassica napus; conditions: scale 0 to 100
# Summary of the method: as §1
# [19] = test system: speedwell; test: Test D postemergence; type: in vivo, Veronica persica; conditions: scale 0 to 100
# Summary of the method: as §1
# [20] = test system: barley, spring; test: Test D postemergence; type: in vivo, Hordeum vulgare; conditions: scale 0 to 100
# Summary of the method: as §1
# [21] = test system: barley, winter; test: Test D postemergence; type: in vivo, Hordeum vulgare; conditions: scale 0 to 100
# Summary of the method: as §1
smiles,measurement,setting,value
CCc1cc(C(=O)NCC(F)(F)F)nn1Cc1ccnc(SC(F)(F)F)c1 [Compound 214],"Plant response rating, Blackgrass",[1]; 31 g ai/ha,35
same,"Plant response rating, Blackgrass",[1]; 62 g ai/ha,75
same,"Plant response rating, Blackgrass",[1]; 125 g ai/ha,90
same,"Plant response rating, Blackgrass",[1]; 250 g ai/ha,100
same,"Plant response rating, Chickweed",[2]; 31 g ai/ha,90
same,"Plant response rating, Chickweed",[2]; 62 g ai/ha,75
same,"Plant response rating, Chickweed",[2]; 125 g ai/ha,100
same,"Plant response rating, Chickweed",[2]; 250 g ai/ha,100
same,"Plant response rating, Galium",[3]; 62 g ai/ha,85
same,"Plant response rating, Galium",[3]; 125 g ai/ha,100
same,"Plant response rating, Galium",[3]; 250 g ai/ha,100
same,"Plant response rating, Bromegrass, Downy",[4]; 31 g ai/ha,15
same,"Plant response rating, Bromegrass, Downy",[4]; 62 g ai/ha,25
same,"Plant response rating, Bromegrass, Downy",[4]; 125 g ai/ha,35
same,"Plant response rating, Bromegrass, Downy",[4]; 250 g ai/ha,80
same,"Plant response rating, Field Poppy",[5]; 62 g ai/ha,100
same,"Plant response rating, Field Poppy",[5]; 125 g ai/ha,100
same,"Plant response rating, Field Poppy",[5]; 250 g ai/ha,100
same,"Plant response rating, Kochia",[6]; 62 g ai/ha,70
same,"Plant response rating, Kochia",[6]; 125 g ai/ha,100
same,"Plant response rating, Kochia",[6]; 250 g ai/ha,100
same,"Plant response rating, Lambsquarters",[7]; 62 g ai/ha,90
same,"Plant response rating, Lambsquarters",[7]; 125 g ai/ha,100
same,"Plant response rating, Lambsquarters",[7]; 250 g ai/ha,100
same,"Plant response rating, Oilseed Rape",[8]; 62 g ai/ha,65
same,"Plant response rating, Oilseed Rape",[8]; 125 g ai/ha,100
same,"Plant response rating, Oilseed Rape",[8]; 250 g ai/ha,100
same,"Plant response rating, Wheat, Spring",[9]; 62 g ai/ha,10
same,"Plant response rating, Wheat, Spring",[9]; 125 g ai/ha,40
same,"Plant response rating, Wheat, Spring",[9]; 250 g ai/ha,75
same,"Plant response rating, Wheat, Winter",[10]; 62 g ai/ha,15
same,"Plant response rating, Wheat, Winter",[10]; 125 g ai/ha,55
same,"Plant response rating, Wheat, Winter",[10]; 250 g ai/ha,75
same,"Plant response rating, Radish, Wild",[11]; 62 g ai/ha,100
same,"Plant response rating, Radish, Wild",[11]; 125 g ai/ha,100
same,"Plant response rating, Radish, Wild",[11]; 250 g ai/ha,100
same,"Plant response rating, Windgrass",[12]; 62 g ai/ha,85
same,"Plant response rating, Windgrass",[12]; 125 g ai/ha,90
same,"Plant response rating, Windgrass",[12]; 250 g ai/ha,100
same,Canarygrass plant response rating,"[13]; Postemergence, 31 g ai/ha",15
same,Canarygrass plant response rating,"[13]; Postemergence, 125 g ai/ha",15
same,Canarygrass plant response rating,"[13]; Postemergence, 250 g ai/ha",30
same,Canarygrass plant response rating,"[13]; postemergence, 62 g ai/ha",15
same,Chickweed plant response rating,"[14]; Postemergence, 31 g ai/ha",65
same,Chickweed plant response rating,"[14]; Postemergence, 125 g ai/ha",70
same,Chickweed plant response rating,"[14]; Postemergence, 250 g ai/ha",70
same,Chickweed plant response rating,"[14]; postemergence, 62 g ai/ha",65
same,Field Poppy plant response rating,"[15]; Postemergence, 31 g ai/ha",70
same,Field Poppy plant response rating,"[15]; Postemergence, 125 g ai/ha",70
same,Field Poppy plant response rating,"[15]; Postemergence, 250 g ai/ha",80
same,Field Poppy plant response rating,"[15]; postemergence, 62 g ai/ha",70
same,"Ryegrass, Italian plant response rating","[16]; Postemergence, 31 g ai/ha",10
same,"Ryegrass, Italian plant response rating","[16]; Postemergence, 125 g ai/ha",20
same,"Ryegrass, Italian plant response rating","[16]; Postemergence, 250 g ai/ha",45
same,"Ryegrass, Italian plant response rating","[16]; postemergence, 62 g ai/ha",10
same,Kochia plant response rating,"[17]; Postemergence, 31 g ai/ha",70
same,Kochia plant response rating,"[17]; Postemergence, 125 g ai/ha",80
same,Kochia plant response rating,"[17]; Postemergence, 250 g ai/ha",85
same,Kochia plant response rating,"[17]; postemergence, 62 g ai/ha",70
same,Oilseed Rape plant response rating,"[18]; Postemergence, 31 g ai/ha",65
same,Oilseed Rape plant response rating,"[18]; Postemergence, 125 g ai/ha",75
same,Oilseed Rape plant response rating,"[18]; Postemergence, 250 g ai/ha",100
same,Oilseed Rape plant response rating,"[18]; postemergence, 62 g ai/ha",65
same,Speedwell plant response rating,"[19]; Postemergence, 31 g ai/ha",90
same,Speedwell plant response rating,"[19]; Postemergence, 125 g ai/ha",95
same,Speedwell plant response rating,"[19]; Postemergence, 250 g ai/ha",100
same,Speedwell plant response rating,"[19]; postemergence, 62 g ai/ha",90
same,"Barley, Spring plant response rating","[20]; Postemergence, 31 g ai/ha",15
same,"Barley, Spring plant response rating","[20]; Postemergence, 125 g ai/ha",20
same,"Barley, Spring plant response rating","[20]; Postemergence, 250 g ai/ha",40
same,"Barley, Spring plant response rating","[20]; postemergence, 62 g ai/ha",15
same,"Barley, Winter plant response rating","[21]; Postemergence, 31 g ai/ha",20
same,"Barley, Winter plant response rating","[21]; Postemergence, 125 g ai/ha",30
same,"Barley, Winter plant response rating","[21]; Postemergence, 250 g ai/ha",35
same,"Barley, Winter plant response rating","[21]; postemergence, 62 g ai/ha",20
